Experimental data taken from US11649236B2, “Polycyclic carbamoylpyridone derivative” (Shionogi & Co., Ltd., priority 2018, dated 2023).

Tests used:
[1] = system: HIV; assay: Anti-HIV activity (MT-4 cells, MTT); type: cell-based; settings: Human immunodeficiency virus 1, MT4, 96 h, cultured 4 days
How it was run: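 MT-4 cells (2.5×10^5 cells/mL) mixed with serial dilutions of test sample and HIV, cultured 4 days in CO2 incubator. MTT added for 1 h, cells lysed, absorbance read at 560 nm and 690 nm.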

[2] = Clearance evaluation test; type: in vivo; settings: rat, plasma, 1 umol/kg, rats, intravenous 1 μmol/kg
Source text: Experimental Material and Method (1) Animals used: rats were used. (2) Rearing conditions: the rats were allowed to freely take solid feed and sterilized tap water. (3) Dose and grouping setting: a predetermined dose was intravenously administered. Groups were set as follows: Intravenous administration: 1 μmol/kg (n=2) (4) Preparation of dosing solution: the test sample was solubilized using a solvent of dimethyl sulfoxide/propylene glycol=1/1 and administered. (5) Administration method: the test sample was administered to the tail vein through a syringe with an injection needle. (6) Evaluation item: blood was collected over time, and the concentration of the compound of the present invention in plasma was measured using LC/MS/MS. (7) Statistical analysis: total body clearance (CLtot) and elimination half-life (t½) were calculated as to change in the concentration of the compound of the present invention in plasma by the moment analysis method.

[3] = system: HIV mutant strain 1 (E138K/G140S/Q148H/N155H); assay: Resistance evaluation test (HeLa-CD4 reporter), mutant strain 1; type: cell-based; settings: FC=EC50 of mutant strain/EC50 of wild strain, HeLa-CD4 cells
Method: (§1) Serial dilutions of a test sample were prepared in a96-well microplate (50 μL/well). 2.5×10^5 cells/mL of a HeLa-CD4 cell suspension was dispensed at 100 μL/well to the plate containing the test sample. Then, an HIV virus solution (wild strain and mutant strain) was dispensed at 50 μL/well. The plate was mixed with a plate mixer and cultured for 3 days in a CO2 incubator. The culture supernatant in each well was removed by suction. A cell lysis buffer in a reporter assay kit was dispensed at 100 μL/well, and the plate was frozen in a freezer (−80° C.). The plate frozen in a freezer was thawed at room temperature, then mixed with a plate mixer, and centrifuged at 1,200 rpm for 5 minutes. The supernatant of each well was dispensed at 20 μL/well to a 96-well microplate (BLACK). A chemiluminescent reagent in the reporter assay kit was dispensed at 100 μL/well and reacted at room temperature for approximately 1 hour. Then, luminescence intensity was measured using MicroBeta TRILUX. […] FC=EC50 of mutant strain/EC50 of wild strain (Results) FC for the mutant strain 1 (E138K/G140S/Q148H/N155H) and FC for the mutant strain 2 (E92Q/E138T/G140S/Q148H) are shown in the table.

[4] = system: HIV mutant strain 2 (E92Q/E138T/G140S/Q148H); assay: Resistance evaluation test (HeLa-CD4 reporter), mutant strain 2; type: cell-based; settings: FC=EC50 of mutant strain/EC50 of wild strain, HeLa-CD4 cells
Method: as §1

[5] = Metabolic stability test; type: in vitro ADME, human; set-up: key: % remaining vs amount at 0 min (=100%)
Method: Commercially available pooled human liver microsomes were reacted with the compound of the present invention for a certain time. A residual rate was calculated by the comparison between the reacted sample and an unreacted sample to evaluate the degree at which the compound of the present invention is metabolized in the liver. A reaction was performed (oxidative reaction) at 37° C. for 0 minutes or 30 minutes in the presence of 1 mmol/L NADPH in 0.2 mL of a buffer (50 mmol/L Tris-HCl pH 7.4, 150 mmol/L potassium chloride, 10 mmol/L magnesium chloride) containing 0.5 mg protein/mL of human liver microsomes. After the reaction, 50 μL of the reaction solution was added to 100 μL of a solution of methanol/acetonitrile=1/1 (v/v) and mixed, and the mixture was centrifuged at 3000 rpm for 15 minutes. The compound of the present invention in the centrifugation supernatant was quantified by LC/MS/MS or solid-phase extraction (SPE)/MS. The amount of the compound of the present invention remaining after the reaction was calculated with the amount of the compound at 0 minutes of the reaction defined as 100%.

[6] = target: Voltage gated sodium channel (Nav 1.5 channel) (Homo sapiens, UniProt Q14524); settings: pH 7.4
Chain of Voltage gated sodium channel (Nav 1.5 channel) (Q14524 whole entry): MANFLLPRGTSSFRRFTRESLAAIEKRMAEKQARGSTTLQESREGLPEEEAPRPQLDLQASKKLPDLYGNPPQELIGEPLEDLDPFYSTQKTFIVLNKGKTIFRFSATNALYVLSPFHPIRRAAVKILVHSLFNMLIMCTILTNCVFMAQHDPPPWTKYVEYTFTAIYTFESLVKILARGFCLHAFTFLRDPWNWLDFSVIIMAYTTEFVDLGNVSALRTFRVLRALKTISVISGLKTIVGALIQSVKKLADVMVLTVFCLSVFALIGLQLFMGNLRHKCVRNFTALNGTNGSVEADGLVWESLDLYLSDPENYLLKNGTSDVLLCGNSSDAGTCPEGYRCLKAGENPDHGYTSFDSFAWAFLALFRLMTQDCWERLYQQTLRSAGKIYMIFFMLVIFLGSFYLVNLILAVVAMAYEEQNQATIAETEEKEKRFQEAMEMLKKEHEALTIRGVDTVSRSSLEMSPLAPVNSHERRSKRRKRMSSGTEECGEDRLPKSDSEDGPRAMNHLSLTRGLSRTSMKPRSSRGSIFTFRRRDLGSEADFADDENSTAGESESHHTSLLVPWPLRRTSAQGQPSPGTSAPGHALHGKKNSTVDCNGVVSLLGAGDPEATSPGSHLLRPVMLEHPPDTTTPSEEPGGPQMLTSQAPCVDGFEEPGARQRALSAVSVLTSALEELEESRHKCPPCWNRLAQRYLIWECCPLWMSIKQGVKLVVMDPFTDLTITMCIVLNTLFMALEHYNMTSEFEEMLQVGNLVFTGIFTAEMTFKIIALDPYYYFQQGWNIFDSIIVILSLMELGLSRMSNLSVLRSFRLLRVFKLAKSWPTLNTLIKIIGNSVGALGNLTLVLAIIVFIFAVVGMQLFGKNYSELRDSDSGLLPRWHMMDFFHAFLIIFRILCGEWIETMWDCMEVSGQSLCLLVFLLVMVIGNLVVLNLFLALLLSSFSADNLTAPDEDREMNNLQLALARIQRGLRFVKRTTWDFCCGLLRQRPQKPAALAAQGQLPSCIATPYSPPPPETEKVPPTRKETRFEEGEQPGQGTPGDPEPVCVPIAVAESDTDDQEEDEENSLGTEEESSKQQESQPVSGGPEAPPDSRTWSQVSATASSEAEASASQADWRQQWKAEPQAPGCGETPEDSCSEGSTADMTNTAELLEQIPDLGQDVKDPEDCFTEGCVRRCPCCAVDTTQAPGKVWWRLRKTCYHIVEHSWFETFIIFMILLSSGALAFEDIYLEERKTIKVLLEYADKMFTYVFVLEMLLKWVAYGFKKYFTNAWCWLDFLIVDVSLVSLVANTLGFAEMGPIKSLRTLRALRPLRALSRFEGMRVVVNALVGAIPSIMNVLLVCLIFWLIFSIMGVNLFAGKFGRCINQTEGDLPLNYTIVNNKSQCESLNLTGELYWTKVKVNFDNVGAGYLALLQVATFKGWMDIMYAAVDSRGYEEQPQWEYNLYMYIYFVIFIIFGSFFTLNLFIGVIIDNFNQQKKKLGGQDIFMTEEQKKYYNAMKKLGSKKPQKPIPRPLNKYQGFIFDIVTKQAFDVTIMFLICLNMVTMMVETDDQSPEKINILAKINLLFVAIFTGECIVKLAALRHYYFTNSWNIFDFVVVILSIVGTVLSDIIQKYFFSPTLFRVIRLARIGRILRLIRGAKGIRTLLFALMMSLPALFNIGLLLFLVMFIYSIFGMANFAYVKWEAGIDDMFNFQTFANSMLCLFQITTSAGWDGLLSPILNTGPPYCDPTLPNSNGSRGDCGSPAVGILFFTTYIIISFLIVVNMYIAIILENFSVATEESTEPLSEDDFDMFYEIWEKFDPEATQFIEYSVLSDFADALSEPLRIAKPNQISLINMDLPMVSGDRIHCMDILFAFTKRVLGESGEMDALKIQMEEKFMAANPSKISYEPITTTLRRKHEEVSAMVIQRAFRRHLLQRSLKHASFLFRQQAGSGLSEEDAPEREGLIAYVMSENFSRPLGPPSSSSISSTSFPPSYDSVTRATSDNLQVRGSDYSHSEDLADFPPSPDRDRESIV
Source text: For the purpose of assessing risk of arrhythmogenesis of the compound of the present invention, effects of the compound of the present invention on Na^+ current (INa), which plays an important role in the depolarization process of myocardium, was studied using HEK cells expressing Voltage gated sodium channel (Nav 1.5 channel) encoded by SCN5A gene. A cell is retained at a membrane potential of −100 mV by the whole cell patch clamp method using an automated patch clamp system (QPatch; Sophion Bioscience A/S), then INa induced by depolarization stimulation at −10 mV for 20 milliseconds, was recorded. […] From the obtained INa, an absolute value of the maximum peak current was measured based on the current value at the resting membrane potential using analysis software (QPatch Assay software; Sophion Bioscience A/S). The maximum peak current at the time of the application of the compound of the present invention with respect to the maximum peak current at the time of the application of the vehicle was further calculated to evaluate the influence of the compound of the present invention on INa.

[7] = system: HIV; assay: Anti-HIV activity evaluation test using PBMC of healthy humans; type: cell-based; settings: Human immunodeficiency virus 1, 96 h, read-out: 90% HIV inhibitory concentration (EC90); PHA-stimulated PBMC, 4 days, reverse transcriptase activity
Method: Serial dilutions of a test sample were prepared in a 96-well microplate (50 μL/well). 1.0×10^5/well of PBMC stimulated with Phytohemagglutinin (PHA) and an HIV viral solution were mixed in the required number of wells and the mixture was reacted at 37° C. for 1 hour. After the reaction, the cell suspension was centrifuged and the supernatant was discarded, and the infected cells were dispersed in the culture medium in the required number of wells at 150 μL/well. The obtained medium was dispensed at 150 μL/well to a 96-well microplate containing the test sample. The plate was mixed with a plate mixer and cultured for 4 days in a CO2 incubator. The reverse transcriptase activity in the culture medium was measured.

[8] = system: HIV; assay: Anti-HIV activity evaluation test in the presence of human serum protein (MT-4 cells); type: cell-based; settings: PS=4×(EC50 in 25% human serum protein/EC50 in absence), 100% extrapolation value
Method: Serial dilutions of a test sample were prepared in a 96-well microplate (50 μL/well). A human serum protein solution (50% human serum protein concentration) was dispensed at 100 μL/well into a 96-well microplate containing the test sample, and allowed to be left still at room temperature for 1 hour. For the plate of serum absence, the culture medium was dispensed at 100 μL/well. 3.0×10^5/well of MT-4 cells and 3 μL/well of an HIV viral solution were mixed in an amount of the required number of wells, and the mixture was reacted at 37° C. for 1 hour. After the reaction, the cell suspension was centrifuged and the supernatant was discarded, and the infected cells were dispersed in the culture medium in an amount of the required number of wells at 50 μL/well, and dispensed at 50 μL/well to a 96-well microplate containing the test sample and human serum protein (final concentration of the human serum protein: 25%). The plate was mixed with a plate mixer and cultured for 4 days in a CO2 incubator. An MTT (3-(4,5-dimethylthiazol-2-yl)-2,5-diphenyltetrazolium bromide) solution was dispensed at 30 μL/well. The plate was reacted for 1 hour in a CO2 incubator. 150 μL of the supernatant was removed from each well so as not to take up the cells. […] The absorbance of the mixed plate was measured at two wavelengths of 560 nm and 690 nm using a microplate reader. […]

[9] = compound 0.5 μmol/L, human liver microsomes 0.5 mg protein/mL, NADPH, 37° C., 30 minutes, amount at 0 minutes defined as 100%
[10] = human, 30 min, 0.5 μmol/L, pH 7.4

Row | SMILES | EC50 [1] [nM] | half-life ([2]; read-out: elimination half-life (t½) (converted)) [h] | clearance ([2]; read-out: total body clearance (CLtot)) [mL/min/kg] | FC mutant strain 1 [3] | FC mutant strain 2 [4] | residual rate [5, 9] | maximum peak current (INa) with compound with respect to vehicle [6] [%] | EC90 [7] [nM] | Potency shift (PS) [8] | residual rate [5, 10]
1 | CN1C(=O)c2c(O)c(=O)c(C(=O)NCc3cccc(Cl)c3F)cn2N2C[C@@H]3CC[C@@H](C3)[C@@H]12 [II-028] | 1.4 | 26.7 | 0.102 | 9.9 | 15 | 74.2 |  |  |  | 
2 | COC[C@@H]1CC[C@H]2N(C)C(=O)c3c(O)c(=O)c(C(=O)NCc4cccc(Cl)c4F)cn3N12 [II-031] | 0.34 |  |  | 10 | 6.9 | 86 | 79 | 0.73 | 364 | 
3 | CCN1C(=O)c2c(O)c(=O)c(C(=O)NCc3ccc(F)cc3F)cn2N2C[C@@H](C)C[C@@H]12 [II-051] | 0.74 |  |  | 19 | 21 | 96 |  | 3.3 | 236 | 
4 | CCN1C(=O)c2c(O)c(=O)c(C(=O)NCc3cccc(Cl)c3F)cn2N2[C@H]3COC[C@H]3C[C@@H]12 [II-060] | 0.27 |  |  | 22 | 16 |  |  |  |  | 61.6
5 | CN1C(=O)c2c(O)c(=O)c(C(=O)NCc3cccc(Cl)c3F)cn2N2C[C@@H]3CC[C@@H](O3)[C@@H]12 [II-066] | 0.17 |  |  | 25 | 15 | 97.7 |  |  |  | 
6 | CCN1C(=O)c2c(O)c(=O)c(C(=O)NCc3ccc(F)cc3F)cn2N2CC[C@H](C)C[C@@H]12 [II-071] | 0.74 |  |  | 27 | 22 | 104 |  |  |  | 
7 | CCN1C(=O)c2c(O)c(=O)c(C(=O)NCc3ccc(F)cc3)cn2N2CCCC[C@@H]12 [II-077] | 1.1 |  |  | 32 | 36 | 100 |  |  |  | 
8 | CN1C(=O)c2c(O)c(=O)c(C(=O)NCc3c(F)cc(F)cc3F)cn2N2CCCC[C@@H]12 [II-087] | 1.4 |  |  | 38 | 14 | 105 |  |  |  | 
9 | C[C@H]1CC[C@H]2N(C)C(=O)c3c(O)c(=O)c(C(=O)NCc4ccc(Cl)cc4F)cn3N2C1 [II-090] | 3.2 |  |  | 38 | 25 | 95.7 |  |  |  | 
10 | CCN1C(=O)c2c(O)c(=O)c(C(=O)NCc3ccc(F)cc3F)cn2N2[C@H](COC)CC[C@@H]12 [II-093] | 0.32 |  |  | 39 | 38 | 97.5 |  |  |  | 
11 | CN1C(=O)c2c(O)c(=O)c(C(=O)NCc3cccc(Cl)c3F)cn2N2CCCC[C@@]12C [II-099] | 0.33 |  |  | 44 | 26 | 88.6 |  |  |  | 
12 | CCN1C(=O)c2c(O)c(=O)c(C(=O)NCc3ccc(F)cc3F)cn2N2C[C@@H]3CC[C@@H](O3)[C@@H]12 [II-102] | 0.61 |  |  | 47 | 45 | 101 |  |  |  | 
13 | CN1C(=O)c2c(O)c(=O)c(C(=O)NCc3cccc(F)c3F)cn2N2CCCC[C@@H]12 [II-104] | 0.69 |  |  | 48 | 17 | 96.9 |  |  |  | 
14 | CCN1C(=O)c2c(O)c(=O)c(C(=O)NCc3ccc(F)cc3F)cn2N2C[C@H](COC)C[C@@H]12 [II-105] | 0.58 |  |  | 48 | 62 | 84.3 |  |  |  | 
15 | CN1C(=O)c2c(O)c(=O)c(C(=O)NCc3cccc(Cl)c3F)cn2N2CCOC[C@@H]12 [II-108] | 0.61 |  |  | 50 | 27 | 97.2 |  |  |  | 
16 | CN1C(=O)c2c(O)c(=O)c(C(=O)NCc3cccc(Cl)c3F)cn2N2[C@H]3COC[C@H]3C[C@@H]12 [II-133] | 0.43 |  |  | 76 | 17 |  |  |  |  | 101
17 | CCN1C(=O)c2c(O)c(=O)c(C(=O)NCc3ccc(F)cc3F)cn2N2[C@H]3COC[C@H]3C[C@@H]12 [II-136] | 0.65 |  |  | 78 | 110 |  |  |  |  | 77.2
18 | CN1C(=O)c2c(O)c(=O)c(C(=O)NCc3cccc(Cl)c3F)cn2N2C[C@@H]3CCC[C@@H](C3)[C@@H]12 [II-153] | 0.74 |  |  | 18 | 10 | 75.4 |  |  |  | 
19 | CCN1C(=O)c2c(O)c(=O)c(C(=O)NCc3ccc(F)cc3F)cn2N2C[C@@H]3CCC[C@@H](O3)[C@@H]12 [II-156] | 0.33 |  |  | 26 | 16 | 98.6 |  |  |  | 
20 | CCN1C(=O)c2c(O)c(=O)c(C(=O)NCc3ccc(F)nc3F)cn2N2C[C@@H]3CC[C@@H](O3)[C@@H]12 [II-157] | 2.2 |  |  | 36 | 25 | 105 |  |  |  | 
